This assay addresses T1, POsterior Segregation (Caenorhabditis elegans, UniProt G5EF15).
T1 sequence (G5EF15 whole entry): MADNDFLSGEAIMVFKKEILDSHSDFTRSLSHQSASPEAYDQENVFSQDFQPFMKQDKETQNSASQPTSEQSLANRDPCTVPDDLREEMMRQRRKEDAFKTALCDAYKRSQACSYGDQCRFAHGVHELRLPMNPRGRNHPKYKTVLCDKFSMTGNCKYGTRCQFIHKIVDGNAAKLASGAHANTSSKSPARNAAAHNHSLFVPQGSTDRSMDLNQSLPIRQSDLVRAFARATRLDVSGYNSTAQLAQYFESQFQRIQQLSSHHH
The experiment in a line: disruptors of C. elegans POS-1 RNA interaction – biochemical, fluorescence polarization, dose response (AID 1964).

Where a name gives a salt, the structure may show the parent alone.

Take `Cc1ccc(N=CCC(=O)c2sc(-c3ccccc3)nc2C)cc1` [(E)-1-(4-methyl-2-phenyl-1,3-thiazol-5-yl)-3-(4-toluidino)-2-propen-1-one]: a half-maximal response (EC50) required 46.4 µM.
Under `Cc1c(NC=C2C(=O)NC(=O)N(Cc3ccco3)C2=O)c(=O)n(-c2ccccc2)n1C` [(5E)-1-(2-furfuryl)-5-[[(3-keto-1,5-dimethyl-2-phenyl-3-pyrazolin-4-yl)amino]methylene]barbituric acid] stands above 300 µM; under `O=C(Cc1nc2cc(Cl)ccc2oc1=O)c1ccco1` [(3Z)-6-chloranyl-3-[2-(furan-2-yl)-2-oxidanylidene-ethylidene]-4H-1,4-benzoxazin-2-one], above 300 µM.
`Cc1ccc(N/N=C2/C(=O)Nc3ccc(F)cc32)cc1` [5-fluoro-3-[2-(4-methylphenyl)hydrazono]indolin-2-one]: the EC50 was above 300 µM.
For `Cc1[nH]c2ccccc2c1/C=C1\N=C(c2ccc(F)cc2)OC1=O` [2-(4-fluorophenyl)-4-[(2-methyl-1H-indol-3-yl)methylene]-1,3-oxazol-5(4H)-one], the EC50 is above 300 µM.
To `Cc1cc(-c2ccccc2)nc(N=NCc2ccc(O)cc2O)n1` [SMR000513422] belongs above 300 µM.
As to `Cc1ncc(C=O)c(CNNC(=O)c2cc(Br)ccc2O)c1O` [5-bromanyl-N'-[(Z)-[5-(hydroxymethyl)-2-methyl-3-oxidanylidene-pyridin-4-ylidene]methyl]-2-oxidanyl-benzohydrazide], the EC50 was above 300 µM.
To `O=NC1CC2(CC(N=O)C1N=O)OCCO2` (stereo unspecified) [9-(hydroxyamino)-8-nitroso-1,4-dioxaspiro[4.5]dec-8-en-7-one oxime] belongs above 300 µM; to `N#CC1C(=N)OC2=C(C(=O)CC(c3ccccc3)C2)C1c1ccc2c(c1)OCO2` (stereo unspecified), above 300 µM.
Regarding `CC1=C(C#N)C(=O)N(C)C(=O)C1=CNNc1ccc(C)c(C)c1` [MLS000698328], the EC50 was above 300 µM.
Under `O=C(CC(=O)c1ccccc1)C(=O)NNC(=O)c1ccccc1[N+](=O)[O-]` [2-Nitro-benzoic acid N'-(2-hydroxy-4-oxo-4-phenyl-but-2-enoyl)-hydrazide] stands 70 µM.
As to `COc1cc(OC)c(C2C3=C(CC(C)(C)CC3=O)OC(=N)C2C#N)cc1OC` (stereo unspecified) [SMR000054706], the EC50 was above 300 µM.
Take `COc1ccc(C2C3=C(CC(C)(C)CC3=O)OC(=N)C2C#N)cc1OC` (stereo unspecified) [2-amino-4-(3,4-dimethoxyphenyl)-5-keto-7,7-dimethyl-6,8-dihydro-4H-chromene-3-carbonitrile]: the EC50 was above 300 µM.
Under `O=C1C(=O)N(c2ncccn2)C(c2cccs2)C1C(=O)c1ccco1` (stereo unspecified) [3-(furan-2-carbonyl)-4-hydroxy-1-pyrimidin-2-yl-2-thiophen-2-yl-2H-pyrrol-5-one] stands 39.9 µM; under `Cc1nnc(=O)[nH]c1N=NCC1C=CC(=O)C([N+](=O)[O-])=C1` (stereo unspecified) [MLS000585487], 169 µM.
For the molecule `Cn1c2cc(=N)ccc-2c2ccc(N)cc2c1-c1ccccc1` [(3-amino-5-methyl-6-phenyl-phenanthridin-5-ium-8-yl)amine;bromide], the EC50 stood at 13.5 µM.
The molecule `CC1CCC2=C(C#N)C(=N)C(C#N)(C#N)C(c3cccs3)C2C1` (stereo unspecified) [2-amino-6-methyl-4-(2-thienyl)-4a,5,6,7-tetrahydro-4H-naphthalene-1,3,3-tricarbonitrile] registered an EC50 of 21.7 µM.
Take `CC1(C)CC(=O)C2=C(C1)OC(=N)C(C#N)C2c1ccc2c(c1)OCO2` (stereo unspecified) [SMR000514966]: the EC50 was above 300 µM.
To `CN1CCC2=C(C#N)C(=N)C(C#N)(C#N)[C@H](c3cccc(Cl)c3)C2C1` (stereo partly drawn) [(8S)-6-amino-8-(3-chlorophenyl)-2-methyl-1,3,8,8a-tetrahydroisoquinoline-5,7,7-tricarbonitrile] belongs 12.5 µM; to `Cc1ccc(Cl)c2c1NC(=O)/C2=C1/NC(=S)NC1=O`, 14.3 µM; to `C=CCn1c(=O)c(=Cc2ccc(C)o2)s/c1=C(\C#N)C(=O)c1ccccc1` [2-[3-allyl-4-keto-5-[(5-methyl-2-furyl)methylene]thiazolidin-2-ylidene]-3-keto-3-phenyl-propionitrile], 30.7 µM.
Under `O=C1N=C(N2C=CC(c3ccncc3)C=C2)C(=CN=NC(=O)c2ccccc2O)S1` [SMR000646350] stands 11.9 µM; under `O=C1CC(=O)c2c(O)cc(O)c(O)c2C1=O` [4,5,7,8-tetrahydroxy-1,2-naphthoquinone], 1.07 µM; under `CCN(CC)CCN1C(=O)C(=O)C(C(=O)c2cc3cccc(OC)c3o2)C1c1ccc(F)cc1` (stereo unspecified) [1-(2-Diethylamino-ethyl)-5-(4-fluoro-phenyl)-3-hydroxy-4-(7-methoxy-benzofuran-2-carbonyl)-1,5-dihydr o-pyrrol-2-one], above 300 µM.
`C[C@H]1c2cccc(O)c2C(=O)C2C(=O)[C@]3(O)C(=O)C(C(N)=O)C(=O)[C@@H](N(C)C)C3C(O)C21` (stereo partly drawn) [(2Z,4S,5S,6R,12aS)-2-[amino(hydroxy)methylidene]-4-(dimethylamino)-5,10,11,12a-tetrahydroxy-6-methyl-4a,5,5a,6-tetrahydro-4H-tetracene-1,3,12-trione;ethanol;hydrate;hydrochloride]: the EC50 is above 300 µM.
Under `C=CCSc1nnc(N2C(=O)C(=O)C(C(=O)c3ccco3)C2c2ccc(F)cc2)s1` (stereo unspecified) [1-[5-(allylthio)-1,3,4-thiadiazol-2-yl]-5-(4-fluorophenyl)-4-(2-furoyl)-3-hydroxy-3-pyrrolin-2-one] stands 114 µM; under `CCCCN1C(=O)NC(=O)C(=CNNC(=O)c2ccncc2)C1=O` [Isonicotinic acid N'-[1-butyl-2,4,6-trioxo-tetrahydro-pyrimidin-(5E)-ylidenemethyl]-hydrazide], above 300 µM.
Under `COC1=CC([N+](=O)[O-])=CC(/C=N/NC(=O)CC#N)C1=O` (stereo unspecified) stands above 300 µM; under `Cc1nnc(N2C(=O)C(=O)C(C(=O)c3ccco3)C2c2ccc(F)cc2)s1` (stereo unspecified) [2-(4-fluorophenyl)-3-(furan-2-carbonyl)-4-hydroxy-1-(5-methyl-1,3,4-thiadiazol-2-yl)-2H-pyrrol-5-one], 34.2 µM.
In the case of `COc1ccc(C=C2CCCC(C(=O)C(F)(F)F)C2=O)cc1OC` (stereo unspecified) [(2E,6Z)-2-(3,4-dimethoxybenzylidene)-6-(2,2,2-trifluoro-1-hydroxyethylidene)cyclohexanone], the EC50 was above 300 µM.
With `C=CC1=C(C(=O)O)N2C(=O)[C@@H](NC(=O)C(N=O)c3csc(N)n3)[C@H]2SC1` (stereo partly drawn) [(6R,7R)-7-[[2-(2-azanyl-1,3-thiazol-4-yl)-2-hydroxyimino-ethanoyl]amino]-3-ethenyl-8-oxidanylidene-5-thia-1-azabicyclo[4.2.0]oct-2-ene-2-carboxylic acid], the midpoint of the response, the EC50, lay at 49.8 µM.
For `CN(C)[C@@H]1C(=O)C(C(N)=O)C(=O)[C@@]2(O)C(=O)C3C(=O)c4c(O)cccc4[C@@](C)(O)[C@H]3[C@H](O)[C@@H]12` (stereo partly drawn) [(2E,4S,4aR,5S,5aR,6S,12aS)-2-[azanyl(oxidanyl)methylidene]-4-(dimethylamino)-6-methyl-5,6,10,11,12a-pentakis(oxidanyl)-4,4a,5,5a-tetrahydrotetracene-1,3,12-trione], the EC50 was 65.8 µM.
To `COc1ccc(N=C(C(=C(Cl)C(Cl)Cl)[N+](=O)[O-])n2nnc3ccccc32)cc1` [N-[(1E)-1-(1-benzotriazolyl)-3,4,4-trichloro-2-nitrobuta-1,3-dienyl]-4-methoxyaniline] belongs 88.5 µM.
Regarding `CCN(CC)CCNC=C1C(=O)NC(=O)N(CCc2ccccc2)C1=O` [(5E)-5-[[2-(diethylamino)ethylamino]methylene]-1-phenethyl-barbituric acid], the EC50 was above 300 µM.
To `CC1(C)CC(=O)C2=C(C1)OC(=N)C(C#N)C2c1ccccc1OC(=O)N1CCOCC1` (stereo unspecified) [2-(2-amino-3-cyano-7,7-dimethyl-5-oxo-5,6,7,8-tetrahydro-4H-chromen-4-yl)phenyl morpholine-4-carboxylate] belongs above 300 µM; to `COc1ccc(C2C(C(C)=O)=C(C)N=c3sc(=Cc4cc(C)n(C)c4C)c(=O)n32)c(OC)c1` (stereo unspecified), 10.9 µM; to `CCCCOC(=O)c1ccc(NN=C2C(=O)NC(=O)C(C#N)=C2C)cc1` [MLS000778379], above 300 µM.
To `N#CC1C(=N)OC2=C(C(=O)CCC2)C1c1ccc(OC(=O)N2CCOCC2)cc1` (stereo unspecified) [4-(2-amino-3-cyano-5-oxo-5,6,7,8-tetrahydro-4H-chromen-4-yl)phenyl morpholine-4-carboxylate] belongs above 300 µM; to `N#CC1C(=N)Oc2ccc3ccc(O)cc3c2C1c1ccsc1` (stereo unspecified) [3-amino-9-hydroxy-1-(3-thienyl)-1H-benzo[f]chromene-2-carbonitrile], 76.1 µM; to `O=C1NC(=O)N(CCc2ccccc2)C(=O)C1=CNCCCn1ccnc1` [(5E)-5-[(3-imidazol-1-ylpropylamino)methylene]-1-phenethyl-barbituric acid], above 300 µM.
Molecule `Cc1cc(O)c(C(C)C)cc1Nc1csc(=O)[nH]1` [SMR000034713] yielded an EC50 of 38.9 µM.
To `O=C1NC(=O)N(c2cccc(F)c2)C(=O)C1=Cc1c[nH]c2ccccc12` belongs above 300 µM.
Under `COc1cccc(CN2C(=O)C3(C4=C(CCCC4=O)OC(=N)C3C#N)c3ccccc32)c1` (stereo unspecified) [2-amino-1'-(3-methoxybenzyl)-2',5-dioxo-1',2',5,6,7,8-hexahydrospiro[chromene-4,3'-indole]-3-carbonitrile] stands above 300 µM; under `Cc1nnc(N2C(=O)C(=O)C(C(=O)c3ccco3)C2c2cccc3ccccc23)s1` (stereo unspecified) [3-(furan-2-carbonyl)-4-hydroxy-1-(5-methyl-1,3,4-thiadiazol-2-yl)-2-naphthalen-1-yl-2H-pyrrol-5-one], above 300 µM; under `CSc1nnc(N2C(=O)C(=O)C(C(=O)c3ccco3)C2c2ccccc2)s1` (stereo unspecified) [3-(furan-2-carbonyl)-4-hydroxy-1-(5-methylsulfanyl-1,3,4-thiadiazol-2-yl)-2-phenyl-2H-pyrrol-5-one], above 300 µM.
`COc1ccccc1OCC(=O)NN=Cc1c(O)ccc2ccccc12` gave an EC50 of 228 µM.

Values taken from BindingDB's records for doi:10.7270/Q28G8J4C (Broad Institute, 2009).
